This note sets out measurements from PubChem BioAssay (NCI).

Test systems include DLD-1 colon; HL-60(TB) leukemia; HT29 colon; LXFL 529 NSCLC; SNB-78 CNS; U251 CNS; HCT-15 colon; BT-549 breast; DU-145 prostate; MDA-MB-435.
Holding throughout (assay): NCI-60 cell line screen, 48 h

The structures appear in SMILES notation.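 In this assay, cells in 96-well plates receive the compound at five concentrations for 48 hours. Endpoints are linearly interpolated between the surrounding concentrations. Here, GI50 denotes the concentration required for 50% inhibition of growth. TGI is the concentration that stops growth completely.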

As for `Cc1cccc(/C=N/N=C(\N)NO)n1`, the TGI in the test on DLD-1 colon was greater than 100 µM; in the test on HL-60(TB) leukemia, greater than 100 µM; in the test with HT29 colon, greater than 100 µM; with LXFL 529 NSCLC, 53.1 µM; in the test on SNB-78 CNS, greater than 100 µM; in the test with U251 CNS, greater than 100 µM.
Consider `CCOC(=O)C1=C(Nc2cccc3ccccc23)OCC1=O`, for which the TGI in the test on DLD-1 colon, in the test on HT29 colon, in the test with LXFL 529 NSCLC, with SNB-78 CNS and in the test on U251 CNS was greater than 100 µM in each case.
Regarding `O=C(/C=C/c1ccco1)N1CCN(Cc2ccccc2)CC1`, the TGI in the test with DLD-1 colon, in the test with HCT-15 colon, with HL-60(TB) leukemia, with HT29 colon, with LXFL 529 NSCLC and in the test on SNB-78 CNS was greater than 100 µM in each case. Further, the TGI in the test with U251 CNS is greater than 100 µM.
Consider `NC(=S)N/N=C1/C(=O)N(c2ccccc2)C(=O)C1C(=O)Nc1ccccc1` (stereo not drawn), for which the TGI in the test on HCT-15 colon, in the test with HL-60(TB) leukemia, in the test on HT29 colon, in the test with LXFL 529 NSCLC, in the test with SNB-78 CNS and in the test with U251 CNS was greater than 100 µM in each case.
With `CC(=O)Nc1ccc(S(=O)(=O)N/N=C(\C)CN2C(=O)c3ccccc3C2=O)cc1`, the TGI with DLD-1 colon, in the test on HCT-15 colon, in the test with HL-60(TB) leukemia, in the test with HT29 colon, in the test with LXFL 529 NSCLC and in the test with SNB-78 CNS was greater than 100 µM throughout. Also, the TGI with U251 CNS was greater than 100 µM.
Take `O=C(Cc1ccccc1)N/N=C(/c1nc2ccc([N+](=O)[O-])cc2[nH]c1=O)C(O)c1ccco1` (stereo not drawn): the TGI in the test on DLD-1 colon, in the test on HCT-15 colon, with HL-60(TB) leukemia, in the test with HT29 colon, in the test with LXFL 529 NSCLC and in the test with SNB-78 CNS was greater than 100 µM throughout. Besides, the TGI in the test with U251 CNS is greater than 100 µM.
As to `COc1ccccc1C(=O)Nc1ccc(Cl)c(C(=O)OC(C)C)c1`, the TGI is greater than 100 µM with BT-549 breast; greater than 100 µM with DU-145 prostate; greater than 100 µM with HCT-15 colon; greater than 65.2 µM in the test on HL-60(TB) leukemia; 88.2 µM in the test with HT29 colon; greater than 100 µM in the test on MDA-MB-435. In addition, the TGI in the test with SNB-78 CNS and with U251 CNS was greater than 100 µM in each case.
On to `NC(CCSCCF)C(=O)O` (stereo not drawn), for which the TGI with HCT-15 colon, in the test on HL-60(TB) leukemia, in the test with HT29 colon, in the test on LXFL 529 NSCLC, in the test on SNB-78 CNS and in the test with U251 CNS was greater than 100 µM each time.
Take `CC(C)=CC1(C)/C(=N\O)C(C)(CC(C)C)C(=O)N1O` (stereo not drawn): the TGI in the test on DLD-1 colon, with HCT-15 colon, with HL-60(TB) leukemia, with HT29 colon, with LXFL 529 NSCLC and in the test with SNB-78 CNS was greater than 100 µM in each case. For the same molecule, in the test on U251 CNS, the TGI is greater than 100 µM.
Turning to `CC(C)(C)c1cc(C#N)c2c(c1)C(=O)OC2(c1ccccc1)c1ccccc1C#N` (stereo not drawn), the TGI with DLD-1 colon, in the test with HCT-15 colon, with HL-60(TB) leukemia, in the test on HT29 colon, in the test on LXFL 529 NSCLC and with SNB-78 CNS was greater than 100 µM each time. In the test on U251 CNS, the TGI was greater than 100 µM.
As for `OCC(O)C(OC1OC(CO)C(O)C(O)C1O)c1nn(-c2ccc(Cl)cc2)c2nc3cc(Cl)c(Cl)cc3nc12` (stereo not drawn), the TGI in the test with DLD-1 colon, in the test on HCT-15 colon, with HT29 colon, in the test with LXFL 529 NSCLC, with SNB-78 CNS and in the test on U251 CNS was greater than 100 µM each time.
Consider `C=CCC(O)c1cc(OC)ccc1OC` (stereo not drawn), for which the TGI with HCT-15 colon, with HL-60(TB) leukemia, in the test with HT29 colon, with LXFL 529 NSCLC and with U251 CNS was greater than 100 µM in each case.
Regarding `CCOc1ccc2c(c1)[n+]([O-])c(-c1ccc([N+](=O)[O-])cc1)c(N)[n+]2[O-]`, the TGI in the test with DLD-1 colon, in the test with HL-60(TB) leukemia, in the test with HT29 colon, in the test on LXFL 529 NSCLC, in the test with SNB-78 CNS and in the test on U251 CNS was greater than 100 µM each time.
As to `Cc1c(-c2cc(-c3ccccc3)n[nH]c2=O)c2ccccc2n1C`, the TGI in the test with DLD-1 colon, in the test with HCT-15 colon, in the test on HL-60(TB) leukemia, with HT29 colon, with LXFL 529 NSCLC and with SNB-78 CNS was greater than 100 µM each time. The molecule further showed a TGI with U251 CNS greater than 100 µM.
`Nc1ncnc2c1N=CN(Oc1ccccc1)N2`: the TGI in the test on DLD-1 colon, with HCT-15 colon, in the test on HT29 colon, in the test on LXFL 529 NSCLC, with SNB-78 CNS and with U251 CNS was greater than 100 µM throughout.
`COC(=O)C[C@@H]1CC=CC(=O)/C1=C(O)/C=C/c1ccccc1`: the GI50 is 1.48 µM in the test with BT-549 breast; 0.695 µM with DU-145 prostate; 0.294 µM in the test with HCT-15 colon; 1.24 µM in the test with HL-60(TB) leukemia; 0.268 µM with HT29 colon; 0.357 µM in the test with MDA-MB-435. The GI50 in the test on U251 CNS is 0.354 µM. The TGI came out at 2.86 µM in the test with BT-549 breast; 1.96 µM with DU-145 prostate; 1.15 µM with HCT-15 colon; 4.31 µM in the test with HL-60(TB) leukemia; 0.774 µM in the test with HT29 colon; 1.41 µM in the test on MDA-MB-435. This molecule registered a TGI in the test with U251 CNS of 1.28 µM.
For `CNC(=O)NCCCCC(NC(=O)OCc1ccccc1)C(=O)OCc1ccccc1` (stereo not drawn), the TGI was greater than 100 µM with DLD-1 colon; greater than 100 µM in the test on HCT-15 colon; 32.4 µM with HL-60(TB) leukemia; greater than 100 µM in the test with HT29 colon; greater than 100 µM in the test on LXFL 529 NSCLC; 70.8 µM with SNB-78 CNS. Moreover, the TGI in the test on U251 CNS is 54.4 µM.
For `CC1=C(C(=O)NCc2ccccc2)C(c2ccc(N(C)C)cc2)C(C(=O)NCc2ccccc2)=C(C)N1`, the TGI with DLD-1 colon, with HL-60(TB) leukemia, in the test on HT29 colon, in the test with LXFL 529 NSCLC, in the test on SNB-78 CNS and in the test on U251 CNS was greater than 100 µM each time.
